According to patent publication US20120316122A1, “PHARMACEUTICAL COMPOSITIONS FOR COMBATING THROMBOTIC DISEASES AND THEIR PREPARATION AND USES” (INSTITUTE OF RADIATION MEDICINE, ACADEMY OF MILITARY …, priority 2009, published 2012):
“Also recorded” adds a separate entry of the source.

Experiments:
[1] = test system: human platelet aggregation; settings: single compounds; cited from earlier work
blood coagulation [2] = settings: single compounds; cited from earlier work
[3] = test system: platelet aggregation induced by ADP; assay: ADP-induced maximum platelet aggregation rate after gastric administration (Example 1); type: in vivo, Wistar rats; settings: 40 mg/Kg gastric once per day 7 days; blood 1 h after last dose; ADP 20 μM
Experimental: Wistar rats, after 1 h of administration on the 7th day, were anesthetized by intraperitoneal injection of pentobarbital sodium (40-60 mg/kg), blood samples were collected from hearts, anti-coagulated with 3.8% sodium citrate (volume ratio: 1:9). Centrifugation was performed under 800 rpm and room temperature for 10 min to separate platelet-rich plasmas (PRP), then centrifugation was performed again under 3000 rpm and room temperature for 20 min to separate platelet-poor plasmas (PPP). Counting was performed by using F-820 blood cell counter, and PRP was adjusted with PPP to have a concentration of 3.0×10^11/L.
(§1) Chronolog platelet aggregation analyzer test: Platelet suspension was adjusted with plasma to have a concentration of 3.0×10^11/L, the platelet to aggregation analyzer was turned on and pre-warmed for 30 min, and PPP was used as a blank control to adjust transmittance to be 100%. 450 μL of platelet suspension were taken, stirred with a stir bar and pre-warmed at 37° C. for 3 min, and separately added with inducing agent (50 μL) ADP agent (final concentration: 20 μM), then 5 min diagram was recorded, and aggregation rates at 1 min, 3 min and 5 min and the maximum aggregation rates were read.
Blood samples were collected from heart of anaesthetized mice after 1 h of the last gastric administration of timosaponins, and analyzed to determine the rates of platelet aggregation induced by ADP (20 μM) after administration.

platelet aggregation = assay: In vitro activity screening: platelet aggregation; type: cell-based
[4] = test system: artery-vein bypass thrombosis; assay: Artery-vein bypass thrombosis (Example 1); type: in vivo, Wistar rats; settings: 40 mg/Kg gastric once per day 7 days; bypass 15 min
Experimental: The pipe was taken down after 15 min, thrombus was taken out, rolled on a wet filter paper, residual blood was removed, placed on a parchment paper and weighed to obtained its wet weight. Then, it was placed in a drying oven and dried at 60° C. for 1 h to reach a constant weight, cooled and weighed to obtain the dry weight of thrombus.

caudal vein bleeding = assay: Caudal vein bleeding time in mice; settings: 40 mg/Kg gastric twice per day 5 days, test 1 h after dose on 6th day
Experimental: Mice were randomly divided into 7 groups: control group, aspirin group (ASP,40 mg/Kg), BII group (40 mg/Kg), AIII group (40 mg/Kg), 1:1 group (weight ratio of AIII to BII, 40 mg/Kg), 1:3 group (weight ratio of AIII to BII, 40 mg/Kg), 3:1 group (weight ratio of AIII to BII, 40 mg/Kg). Continuous gastric administration was performed for 5 days, twice per day, and the experiments were conducted after 1 h of the administration on the 6th day. The control group was administered with physiological saline of the same volume. All drug ratios were AIII to BII.
Mice were anesthetized with pentobarbital sodium (40-60 mg/kg), placed on a worm and comfortable pad, a tail tip was cut at a place where the tail of mice had to a diameter of 2.25-2.5 mm, and immediately placed in PBS (37° C.), timing started. Hemostatic time and re-bleeding time within 10 min were observed, and the bleeding volume of mice was presumed by hemoglobin volume.

[5] = test system: ADP-induced platelet aggregation; assay: ADP-induced platelet aggregation rate in rats after gastric administration (Example 3); type: in vivo, Wistar rats; settings: aspirin 40 mg/kg gastric once per day 7 days; ADP 20 μM; in %
Experimental: Wistar rats were randomly divided into 5 groups, i.e., blank control group, aspirin 40 mg/kg group, the present pharmaceutical composition 10 mg/kg, 20 mg/kg and 40 mg/kg groups, the animals of the groups were subjected to continuous gastric administration for 7 days, once per day, dose volume was 10 mL/kg, operation was conducted after 1 h of administration on the 7th day, and the blank control was administered with distilled water of the same volume. […]
as §1, with “platelet” for “platelet to”, “on,” for “on and pre-warmed for 30 min,”
The administration method of the present pharmaceutical composition and the grouping method were identical to that of the third part, blood samples were collected from hearts of rats on the 7th day after administration, and the ADP-induced platelet aggregation and bleeding/coagulation time (PT, TT and APTT) of the same batch were determined. […]

blood coagulation [6] = assay: Blood coagulation parameters APTT, PT and TT in rats; type: in vivo, Wistar rats; settings: aspirin group (40 mg/kg) gastric once per day 7 days
Experimental: Wistar rats were randomly divided into 5 groups, i.e., blank control group, aspirin 40 mg/kg group, the present pharmaceutical composition 10 mg/kg, 20 mg/kg and 40 mg/kg groups, the animals of the groups were subjected to continuous gastric administration for 7 days, once per day, dose volume was 10 mL/kg, operation was conducted after 1 h of administration on the 7th day, and the blank control was administered with distilled water of the same volume.
Blood samples were collected, plasmas were separated, and the operation was conducted according to the specification of kits.
The administration method of the present pharmaceutical composition and the grouping method were identical to that of the third part, blood samples were collected from hearts of rats on the 7th day after administration, and the ADP-induced platelet aggregation and bleeding/coagulation time (PT, TT and APTT) of the same batch were determined. […] The aspirin group gave a platelet aggregation rate lower than that of the control group, to but had no significant difference.

[7] = test system: thrombotic agent consisting of collagen and adrenalin; assay: Lethal time in mice by caudal vein injection of collagen; type: in vivo, Kunming mice; settings: 40 mg/Kg gastric twice per day 5 days, test 1 h after dose on 6th day; observed within 10 min
Experimental: Mice were fixed on mice-fixed frame, and thrombotic agent (100 μg/mouse) consisting of collagen (0.5 mg/kg) and adrenalin (60 ug/kg) were administered by caudal vein injection. The symptoms, symptom occurrence time, and the lethal time in mice were observed within 10 min, and mice […] after 10 min were deemed as survival.

[8] = test system: jugular artery-vein bypass thrombosis; assay: Artery-vein bypass thrombosis in rats (Example 3); type: in vivo, Wistar rats; settings: aspirin 40 mg/kg gastric once per day 7 days; bypass 20 min
Experimental: Then, it was placed in a drying oven and dried at 60° C. for 1 h to reach a constant weight, cooled and weighed to obtain the dry weight of thrombus. […] The aspirin positive control group gave thrombus dry and wet weights slightly higher than those of the large dose group, and had significant difference from the control group.

[9] = test system: rats with cerebral ischemia; settings: rat, in vivo; cited from earlier work
blood vessels = assay: In vitro activity screening: expanding blood vessels

Compound: CC1=C(CC[C@H](C)CO[C@@H]2O[C@H](CO)[C@@H](O)[C@H](O)[C@H]2O)O[C@H]2C[C@H]3[C@@H]4CC[C@@H]5C[C@@H](O[C@@H]6O[C@H](CO)[C@H](O)[C@H](O)[C@H]6O[C@@H]6O[C@H](CO)[C@@H](O)[C@H](O)[C@H]6O)CC[C@]5(C)[C@H]4CC[C@]3(C)[C@@H]12 [BIII]
- activity against human platelet aggregation [1]: significant activity
- extending blood coagulation time (blood coagulation [2]): significant activity

Compound: timosaponins Ia
- activity against human platelet aggregation [1]: significant activity
- extending blood coagulation time (blood coagulation [2]): significant activity

Compound: C[C@H]1CC[C@@]2(OC1)O[C@H]1C[C@H]3[C@@H]4CC[C@@H]5C[C@@H](O[C@@H]6O[C@H](CO)[C@H](O)[C@H](O)[C@H]6O[C@@H]6O[C@H](CO)[C@@H](O)[C@H](O)[C@H]6O)CC[C@]5(C)[C@H]4CC[C@]3(C)[C@H]1[C@@H]2C [AIII, timosaponin AIII]
- Maximum aggregation rate (%) [3]: 39.8 ± 5.0 %
- activity against human platelet aggregation [1]: significant activity
- inhibition of platelet aggregation in vitro (platelet aggregation): significantly inhibit; also recorded: significant inhibitive effect
- Thrombus dry weight [4]: 24.4 ± 6.30 mg
- Thrombus wet weight [4]: 64.29 ± 22.58 mg
- extending blood coagulation time (blood coagulation [2]): significant activity
- Bleeding volume (caudal vein bleeding): 21.3 ± 29.6 µL
- Hemostatic time (s) (caudal vein bleeding; cut-off 600 s): 396.6 ± 208.9^★★★ s

Compound: CC(=O)Oc1ccccc1C(=O)O [ASP, Aspirin]
- Maximum aggregation rate (%) [3]: 40.8 ± 7.6 %
- PLT maximum aggregation rate [5]: 49.1 ± 4.8
- Coagulation time (s) APTT (blood coagulation [6]): 17.50 ± 2.37 s
- Coagulation time (s) PT (blood coagulation [6]): 16.49 ± 2.08 s
- Coagulation time (s) TT (blood coagulation [6]): 28.98 ± 0.97 s
- Thrombus dry weight [4]: 25.5 ± 7.37 mg
- Thrombus wet weight [4]: 79.74 ± 18.95 mg
- Lethal time (s) [7]: 244.6 ± 195.3 ^★ s
- Thrombus weight (mg) Dry weight [8]: 26.7 ± 6.4 mg
- Thrombus weight (mg) Wet weight [8]: 79.7 ± 19.0 mg
- Bleeding volume (caudal vein bleeding): 13.5 ± 13.8 µL
- Hemostatic time (s) (caudal vein bleeding; cut-off 600 s): 277.4 ± 188.5^★★★ s
- Hemostatic time (caudal vein bleeding; cut-off 600 s, listed as aspirin): 277.4 ± 188.5 s

Compound: C[C@@H](CC[C@@]1(O)O[C@H]2C[C@H]3[C@@H]4CC[C@@H]5C[C@@H](O[C@@H]6O[C@H](CO)[C@H](O)[C@H](O)[C@H]6O[C@@H]6O[C@H](CO)[C@@H](O)[C@H](O)[C@H]6O)CC[C@]5(C)[C@H]4CC[C@]3(C)[C@H]2[C@@H]1C)CO[C@@H]1O[C@H](CO)[C@@H](O)[C@H](O)[C@H]1O [BII, timosaponin BII]
- Maximum aggregation rate (%) [3]: 50.8 ± 6.7%
- activity against human platelet aggregation [1]: significant activity
- inhibition of platelet aggregation in vitro (platelet aggregation): could not inhibit
- Thrombus dry weight [4]: 28.6 ± 7.82 mg
- Thrombus wet weight [4]: 90.39 ± 29.59 mg
- extending blood coagulation time (blood coagulation [2]): significant activity
- blood rheology [9]: significantly improve
- cerebral edema [9]: alleviate
- cerebral infarction area [9]: reduce
- nervous symptoms of rats with cerebral ischemia [9]: significantly improve
- Bleeding volume (caudal vein bleeding): 10.7 ± 9.8 µL
- Hemostatic time (s) (caudal vein bleeding; cut-off 600 s): 325.1 ± 200.6^★★★ s
- expanding blood vessels (blood vessels): could expand blood vessels; also recorded: significant effect of expanding blood vessels

Compound: CO[C@]1(CC[C@H](C)CO[C@@H]2O[C@H](CO)[C@@H](O)[C@H](O)[C@H]2O)O[C@H]2C[C@H]3[C@@H]4CC[C@@H]5C[C@@H](O[C@@H]6O[C@H](CO)[C@H](O)[C@H](O)[C@H]6O[C@@H]6O[C@H](CO)[C@@H](O)[C@H](O)[C@H]6O)CC[C@]5(C)[C@H]4CC[C@]3(C)[C@H]2[C@@H]1C [BI]
- activity against human platelet aggregation [1]: significant activity
- extending blood coagulation time (blood coagulation [2]): significant activity
